Data reported in ChEMBL document CHEMBL4138112, “Synthesis of novel indole derivatives as promising DNA-binding agents and evaluation of antitumor and antitopoisomerase I activities” (Eur J Med Chem, 2017).
Activity calls are given as the source filed them. The rule behind the calls is not given here.

Key:
MCF7 = test: Cytotoxicity against human MCF7 cells assessed as reduction in cell viability after 72 hrs by MTT assay; type: functional, cell-based; details: MCF7, 72 h
T47D = test: Cytotoxicity against human T47D cells assessed as reduction in cell viability after 72 hrs by MTT assay; type: functional, cell-based
Calf thymus DNA [1] = test: Binding affinity to calf thymus DNA by UV-Visible absorption spectroscopy; type: nucleic-acid assay; details: Bos taurus
HL-60 = test: Cytotoxicity against human HL60 cells assessed as reduction in cell viability after 72 hrs by MTT assay; type: functional, cell-based; details: HL-60, 72 h
Calf thymus DNA [2] = test: Inhibition of ethidium bromide binding to calf thymus DNA at 20 to 200 uM by fluorescence spectra analysis; type: nucleic-acid assay; details: Bos taurus
K562 = test: Cytotoxicity against human K562 cells assessed as reduction in cell viability after 72 hrs by MTT assay; type: functional, cell-based; details: K562, 72 h
Calf thymus DNA [3] = test: Binding affinity to calf thymus DNA assessed as change in absorption maximum at 10 to 80 uM by UV-Visible absorption spectroscopy (reference value: 425 to 500 nanometer); type: nucleic-acid assay; details: Bos taurus
Calf thymus DNA [4] = test: Binding affinity to calf thymus DNA assessed as hyperchromicity at 10 to 80 uM by UV-Visible absorption spectroscopy relative to control; type: nucleic-acid assay; details: Bos taurus
[5] = biological target: T1, DNA topoisomerase 1 (Homo sapiens) (UniProt P11387); test: Inhibition of human recombinant topoisomerase 1-mediated relaxation of supercoiled pUC19 DNA at 10 to 50 uM after 45 mins by ethidium bromide staining based agarose gel electrophoresis method
T1 sequence (whole entry): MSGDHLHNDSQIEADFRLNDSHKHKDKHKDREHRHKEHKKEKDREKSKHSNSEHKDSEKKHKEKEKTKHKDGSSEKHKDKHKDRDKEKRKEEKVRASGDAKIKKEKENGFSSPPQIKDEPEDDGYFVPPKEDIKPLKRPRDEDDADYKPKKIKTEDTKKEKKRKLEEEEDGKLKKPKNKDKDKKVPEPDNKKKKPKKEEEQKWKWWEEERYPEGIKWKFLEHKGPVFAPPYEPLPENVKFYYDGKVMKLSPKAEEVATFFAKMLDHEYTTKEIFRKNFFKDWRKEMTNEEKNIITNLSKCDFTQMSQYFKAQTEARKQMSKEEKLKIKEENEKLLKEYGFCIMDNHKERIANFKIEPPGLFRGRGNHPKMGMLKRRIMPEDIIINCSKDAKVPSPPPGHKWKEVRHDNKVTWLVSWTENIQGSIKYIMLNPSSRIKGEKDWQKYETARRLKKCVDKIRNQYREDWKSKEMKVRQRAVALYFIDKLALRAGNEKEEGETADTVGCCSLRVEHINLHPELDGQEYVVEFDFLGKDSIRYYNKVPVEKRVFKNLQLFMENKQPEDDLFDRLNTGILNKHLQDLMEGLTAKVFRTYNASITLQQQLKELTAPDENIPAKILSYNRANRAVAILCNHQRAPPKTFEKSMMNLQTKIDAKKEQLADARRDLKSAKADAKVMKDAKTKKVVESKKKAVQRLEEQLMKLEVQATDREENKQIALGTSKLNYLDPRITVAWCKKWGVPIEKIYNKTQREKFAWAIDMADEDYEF

Calf thymus DNA [6] = test: Inhibition of ethidium bromide binding to calf thymus DNA by fluorescence spectra analysis; type: nucleic-acid assay; details: Bos taurus
Calf thymus DNA [7] = test: Binding affinity to calf thymus DNA assessed as hypochromicity at 10 to 80 uM by UV-Visible absorption spectroscopy relative to control; type: nucleic-acid assay; details: Bos taurus

SMILES: NN1C(=O)/C(=C/c2c[nH]c3ccccc23)SC1=S
- IC50 (MCF7): > 50 µM
- IC50 (T47D): > 50 µM
- Kb (Calf thymus DNA [1]): 5.69 ×10⁴ /M
- IC50 (HL-60): 3.61 µM
- Activity (Calf thymus DNA [2]): Active
- IC50 (K562): 22.5 µM
- Activity (Calf thymus DNA [3]): 504 to 507 nm
- Activity (Calf thymus DNA [4]): 6%
- inhibition [5]: Active
- KSV (Calf thymus DNA [6]): 1.81 ×10⁴ /M

SMILES: O=C1NC(=O)/C(=C/c2c[nH]c3ccc(Br)cc23)S1
- IC50 (MCF7): > 50 µM
- IC50 (T47D): > 50 µM
- Kb (Calf thymus DNA [1]): 5.24 ×10⁴ /M
- IC50 (HL-60): > 50 µM
- IC50 (K562): > 50 µM
- Activity (Calf thymus DNA [3]): 457 nm
- Activity (Calf thymus DNA [7]): 6%
- KSV (Calf thymus DNA [6]): 3.86 ×10³ /M

SMILES: O=C1NC(=S)N/C1=C\c1c[nH]c2ccccc12
- IC50 (MCF7): 12.4 µM
- IC50 (T47D): > 50 µM
- Kb (Calf thymus DNA [1]): 6.27 ×10⁴ /M
- IC50 (HL-60): > 50 µM
- IC50 (K562): > 50 µM
- Activity (Calf thymus DNA [3]): 423 nm
- Activity (Calf thymus DNA [7]): 11%
- KSV (Calf thymus DNA [6]): 1.36 ×10³ /M

SMILES: O=C1NC(=S)S/C1=C\c1c[nH]c2ccccc12
- IC50 (MCF7): > 50 µM
- IC50 (T47D): > 50 µM
- Kb (Calf thymus DNA [1]): 4.51 ×10⁴ /M
- IC50 (HL-60): > 50 µM
- IC50 (K562): > 50 µM
- Activity (Calf thymus DNA [3]): 436 to 462 nm
- Activity (Calf thymus DNA [4]): 75%
- KSV (Calf thymus DNA [6]): 1.78 ×10³ /M

SMILES: O=C1NC(=S)S/C1=C\c1c[nH]c2ccc(Br)cc12
- IC50 (MCF7): 3.65 µM
- IC50 (T47D): 11.7 µM
- Kb (Calf thymus DNA [1]): 1.56 ×10⁴ /M
- IC50 (HL-60): > 50 µM
- IC50 (K562): > 50 µM
- Activity (Calf thymus DNA [3]): 462 to 465 nm
- Activity (Calf thymus DNA [4]): 8%
- KSV (Calf thymus DNA [6]): 6.31 ×10³ /M

SMILES: O=C1NC(=O)/C(=C/c2c[nH]c3ccccc23)S1
- IC50 (MCF7): > 50 µM
- IC50 (T47D): 1.93 µM
- Kb (Calf thymus DNA [1]): 7.26 ×10⁴ /M
- IC50 (HL-60): 12.8 µM
- IC50 (K562): > 50 µM
- Activity (Calf thymus DNA [3]): 378 nm
- Activity (Calf thymus DNA [7]): 24%
- KSV (Calf thymus DNA [6]): 1.59 ×10³ /M

SMILES: NN1C(=O)/C(=C/c2c[nH]c3ccc(Br)cc23)SC1=S
- IC50 (MCF7): > 50 µM
- IC50 (T47D): > 50 µM
- Kb (Calf thymus DNA [1]): 1.84 ×10⁴ /M
- IC50 (HL-60): 6.74 µM
- IC50 (K562): > 50 µM
- Activity (Calf thymus DNA [3]): 411 to 413 nm
- Activity (Calf thymus DNA [4]): 23%
- KSV (Calf thymus DNA [6]): 2.96 ×10³ /M

SMILES: COc1cccc2c1C(=O)c1c(O)c3c(c(O)c1C2=O)C[C@@](O)(C(=O)CO)C[C@@H]3O[C@H]1C[C@H](N)[C@H](O)[C@H](C)O1 [DOXORUBICIN]
- IC50 (MCF7): 2.71 µM
- IC50 (T47D): 4.61 µM
- IC50 (HL-60): 0.01 µM
- IC50 (K562): 6.25 µM
